Data reported in patent publication US9783496B2, “Oxindole compounds, solvent-free synthesis and use thereof” (Council of Scientific & Industrial Research, priority 2013, dated 2017).

What follows are molecules tested on M. smegmatis MC^2 155 strain (assay: Antitubercular activity: growth inhibition of M. smegmatis in 96 well microtiter plate (absorbance at 600 nm)). Settings: Mycolicibacterium smegmatis, MC^2155, final concentration of compound 30 μM, 32 hrs, determined against DMSO, triplicate, read-out: Percentage inhibition.
Assay type: cell-based, Mycobacterium smegmatis
Protocol: The compounds were tested for their Anti Mycobacterial ability on M. smegmatis MC^2 155 strain. The series of compounds were obtained in 10 mM stock concentrations. Further, each compound was diluted with the required 100% (v/v) DMSO to achieve a working concentration of 1.5 mM. The inoculum for the assay was prepared by reviving a glycerol stock in Middlebrook 7H9 broth supplemented with 0.1% Tween 80 and 0.5% Glycerol. At the time of inoculation, 10% ADS was added to the media and the culture was incubated in a shaker incubator at 37° C. and 200 rpm. The O.D. of the inoculum reached to 0.8-1 approximately, a secondary inoculum was inoculated and subsequently incubated. This was incubated overnight till the O.D. of the inoculum reached 0.4 approx., following which the inoculum was diluted 1:1000 times. In a 96 well microtiter plate, a 2 μL aliquot of the 1.5 mM dilution of compound was added to each well in triplicate, to which 98 μL of inoculum dilution was added, making the final concentration of compound 30 μM. To each plate a set of controls was added to better ascertain the activity of the compounds. These included DMSO, which was taken as a growth control, and media control (Blank) and Rifampicin and Isoniazid, which were taken as positive controls of inhibition of Mycobacterium smegmatis. After the completion of the period of 32 hrs, the absorbance of the inoculum in wells was measured at 600 nm using a Multi Mode Reader. Absorbance is considered directly proportional to the increase in growth of bacteria, thus it gives a measure of the growth of bacteria in each well. Percentage inhibition was determined against DMSO.

SMILES | inhibition at 30 µM
CN1C(=O)C(OC(=O)c2cc3ccccc3o2)(C(=O)NC(C)(C)C)c2ccccc21 (stereo not shown) | 26.4%
CN1C(=O)C(OC(=O)c2cc3ccccc3[nH]2)(C(=O)NC(C)(C)C)c2ccccc21 (stereo not shown) | 9%
CN1C(=O)C(OC(=O)c2ccccn2)(C(=O)NC(C)(C)C)c2ccccc21 (stereo not shown) | 5.24%
CCOC(=O)CNC(=O)C1(OC(=O)c2ccccc2)C(=O)N(C)c2ccccc21 (stereo not shown) | 14.7%
CN1C(=O)C(OC(=O)/C=C/c2ccccc2)(C(=O)NC(C)(C)C)c2ccccc21 (stereo not shown) | 7.04%
COc1ccc(CC(=O)OC2(C(=O)NC(C)(C)C)C(=O)N(C)c3ccccc32)cc1 (stereo not shown) | 44.2%
CC(C)NC(=O)C1(OC(=O)c2ccccc2)C(=O)N(C)c2ccccc21 (stereo not shown) | -5.24%
CN1C(=O)C(OC(=O)c2ccccc2)(C(=O)NC2CCCCC2)c2ccccc21 (stereo not shown) | -8.02%
CN1C(=O)C(OC(=O)c2ccccc2)(C(=O)NC(C)(C)C)c2ccccc21 (stereo not shown) [Compound 4a, 3-(tert-Butylcarbamoyl)-1-methyl-2-oxoindolin-3-yl benzoate] | 18.6%
CN1C(=O)C(OC(=O)c2ccccc2F)(C(=O)NC(C)(C)C)c2ccccc21 (stereo not shown) [Compound 4b, 3-(tert-Butylcarbamoyl)-1-methyl-2-oxoindolin-3-yl 2-fluoro benzoate] | 24.6%
CN1C(=O)C(OC(=O)c2ccccc2Cl)(C(=O)NC(C)(C)C)c2ccccc21 (stereo not shown) [Compound 4c, 3-(tert-Butylcarbamoyl)-1-methyl-2-oxoindolin-3-yl 2-chloro benzoate] | 42.7%
CN1C(=O)C(OC(=O)c2ccccc2Br)(C(=O)NC(C)(C)C)c2ccccc21 (stereo not shown) [Compound 4d, 3-(tert-butylcarbamoyl)-1-methyl-2-oxoindolin-3-yl 2-bromo benzoate] | 17.3%
CN1C(=O)C(OC(=O)c2cccc([N+](=O)[O-])c2)(C(=O)NC(C)(C)C)c2ccccc21 (stereo not shown) [Compound 4e, 3-(tert-Butylcarbamoyl)-1-methyl-2-oxoindolin-3-yl 3-nitro benzoate] | -5.24%
CN1C(=O)C(OC(=O)c2ccc([N+](=O)[O-])cc2)(C(=O)NC(C)(C)C)c2ccccc21 (stereo not shown) [Compound 4f, 3-(tert-Butylcarbamoyl)-1-methyl-2-oxoindolin-3-yl 4-nitro benzoate] | 21.5%
COc1ccc(C(=O)OC2(C(=O)NC(C)(C)C)C(=O)N(C)c3ccccc32)cc1 (stereo not shown) [Compound 4g, 3-(tert-Butylcarbamoyl)-1-methyl-2-oxoindolin-3-yl 4-methoxy benzoate] | 43.5%
CN1C(=O)C(OC(=O)c2ccco2)(C(=O)NC(C)(C)C)c2ccccc21 (stereo not shown) [Compound 4h, 3-(tert-Butylcarbamoyl)-1-methyl-2-oxoindolin-3-yl furan-2-carboxylate] | 24.1%
CN1C(=O)C(OC(=O)c2cccs2)(C(=O)NC(C)(C)C)c2ccccc21 (stereo not shown) [Compound 4i, 3-(tert-Butylcarbamoyl)-1-methyl-2-oxoindolin-3-yl thiophene-2-carboxylate] | 30.8%
CC(=O)OC1(C(=O)NC(C)(C)C)C(=O)N(C)c2ccccc21 (stereo not shown) [Compound 4n, 3-(tert-Butylcarbamoyl)-1-methyl-2-oxoindolin-3-yl acetate] | 19.6%
CCC(=O)OC1(C(=O)NC(C)(C)C)C(=O)N(C)c2ccccc21 (stereo not shown) [Compound 4o, 3-(tert-Butylcarbamoyl)-1-methyl-2-oxoindolin-3-yl propionate] | -1.64%
CC(C)(C)NC(=O)C1(OC(=O)c2ccccc2)C(=O)N(Cc2ccccc2)c2ccccc21 (stereo not shown) [Compound 4q, 1-Benzyl-3-(tert-Butylcarbamoyl)-2-oxoindolin-3-yl benzoate] | 42.9%
C=CCN1C(=O)C(OC(=O)c2ccccc2)(C(=O)NC(C)(C)C)c2ccccc21 (stereo not shown) [Compound 4r, 1-Allyl-3-(tert-Butylcarbamoyl)-2-oxoindolin-3-yl benzoate] | 35.4%
CC(C)(C)NC(=O)C1(OC(=O)c2ccccc2)C(=O)Nc2ccccc21 (stereo not shown) [Compound 4s, 3-(tert-Butylcarbamoyl)-2-oxoindolin-3-yl benzoate] | 19.1%
CN1C(=O)C(OC(=O)c2ccccc2)(C(=O)NC(C)(C)C)c2cc(F)ccc21 (stereo not shown) [Compound 4u, 3-(tert-Butylcarbamoyl)-5-fluoro-1-methyl-2-oxoindolin-3-yl benzoate] | 5.24%
CN1C(=O)C(OC(=O)c2ccccc2)(C(=O)NC(C)(C)C)c2cc(Cl)ccc21 (stereo not shown) [Compound 4v, 3-(tert-Butylcarbamoyl)-5-chloro-1-methyl-2-oxoindolin-3-yl benzoate] | 9.49%
CN1C(=O)C(OC(=O)c2ccccc2)(C(=O)NC(C)(C)C)c2cc(Br)ccc21 (stereo not shown) [Compound 4w, 5-Bromo-3-(tert-Butylcarbamoyl)-1-methyl-2-oxoindolin-3-yl benzoate] | 23.4%
